The values below come from patent US20230219898A1, “COMPOUNDS AND METHODS FOR BLOCKING APOPTOSIS AND INDUCING AUTOPHAGY” (President and Fellows of Harvard College, priority 2020, published 2023).

Read-outs that look alike come from different tables or passages of the source.

Assay [1] deals with Murine RGC5(661W) cells. The experiment in a line: RIPK1-dependent apoptosis (RDA) of RGC5 cells induced by TNFα plus 5Z-7-Oxozeaenol. The class given is cell-based. Particulars: Mus musculus, 21 hours. The method, then:
Murine RGC5(661W) cells were seeded in 96-well plates (4000 cells per well). Different concentrations of the compounds were added one hour prior to TNFα treatment, followed by the addition of 0.5 ng/ml TNFα plus 0.5 μM 5Z-7-Oxozeaenol to induce RIPK1-dependent apoptosis (RDA). After incubation for 21 hours, cell viability was measured by CellTiter-Glo Luminescent Cell Viability Assay.

The target in assay [2] is T1, GST-TRADD (Homo sapiens, UniProt Q15628).
T1 construct: cDNA encoding GST-tagged hTRADD (Full length or aa180-312); made in house; host or cells: HEK293T (pEBG plasmid)
T1 sequence (Q15628 whole entry, the tested form may be a part): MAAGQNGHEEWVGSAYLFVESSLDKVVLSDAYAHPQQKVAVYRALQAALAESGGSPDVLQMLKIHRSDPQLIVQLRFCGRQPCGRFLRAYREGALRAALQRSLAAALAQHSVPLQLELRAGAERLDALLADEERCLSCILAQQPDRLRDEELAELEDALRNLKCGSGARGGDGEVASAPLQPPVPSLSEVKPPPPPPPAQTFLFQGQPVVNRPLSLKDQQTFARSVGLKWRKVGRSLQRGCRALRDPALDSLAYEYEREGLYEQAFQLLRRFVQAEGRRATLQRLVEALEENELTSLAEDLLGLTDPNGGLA
Nature of the assay: Thermal shift assay with GST-TRADD. The class given is binding. As to conditions: GST-TRADD 50 μM, compound 250 μM. From the text:
Thermal unfolding of GST-TRADD is monitored using SYPRO Orange. Data were collected in the presence of ICCB-19 and Apt-1, leading to a rightward shift in the unfolding transition. The apparent melting temperature (Tm) is the peak in the derivative of the unfolding curve (dF/dT), which is used as an indicator of thermal stability.
Full-length cDNAs for mouse/human TRADD were PCR-amplified from the plasmid library and cloned into pcDNA3.1 using Phanta Max Super-Fidelity DNA Polymerase (Vazyme Biotech Co., Ltd) with appropriate tags. Mutant hTRADD were generated using MutExpress II mutagenesis kit (Vazyme Biotech Co., Ltd). […]
To determine stability, purified proteins were made to a final concentration of 1 μg/l. […] The reaction was run from 25C, ramping up in increments of 0.05° C./s to a final temperature of 95C with fluorescence detection throughout the experiment to generate a dataset. Melting temperature of the protein (Tm) was determined by performing non-linear fitting of the dataset to a Boltzmann Sigmoidal curve in GraphPad Prism with the following equation: Y=Bottom+(Top-Bottom)/[1+exp(Tm-X/Slope)], where Y=fluorescence emission in arbitrary units; X=temperature; Bottom=baseline fluorescence at low temperature; Top=maximal fluorescence at top of the dataset; Slope=describes the steepness of the curve, with larger values denoting shallower curves.

The target in assay [3] is T2, GST-TRADD-C (Homo sapiens, UniProt Q15628).
T2 construct: cDNA encoding GST-tagged hTRADD (Full length or aa180-312); made in house; host or cells: mammalian cells (pEBG plasmid)
T2 sequence (Q15628 180-312): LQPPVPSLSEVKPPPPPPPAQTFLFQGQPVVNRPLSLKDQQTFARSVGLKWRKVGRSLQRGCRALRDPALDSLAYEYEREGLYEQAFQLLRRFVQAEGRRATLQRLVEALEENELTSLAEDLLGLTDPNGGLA
Nature of the assay: Thermal shift assay with GST-TRADD-C. The class given is binding. As to conditions: GST-TRADD-C 50 μM, compound 250 μM. How it is done:
To determine stability, purified proteins were made to a final concentration of […]. SYPRO Orange dye was added to the protein to make a final concentration of 2×. Compounds were added in the mix with a final concentration of 250 μM or as indicated and incubated at 4C for 1 h. The experiments were performed in 384-well plates specific for real-time PCR instrument with a total volume of 20 μl/well. The assay plate was covered with a sheet of optically clear adhesive to seal each well. The assay plate was centrifuged at 800×g for 2 min at 25C to collect solutions in the bottom of the well and remove bubbles. The assay plate was placed into the Applied Biosystems QuantStudio 6 Real-Time PCR System. The reaction was run from 25C, ramping up in increments of 0.05° C./s to a final temperature of 95C with fluorescence detection throughout the experiment to generate a dataset. Melting temperature of the protein (Tm) was determined by performing non-linear fitting of the dataset to a Boltzmann Sigmoidal curve in GraphPad Prism with the following equation: Y=Bottom+(Top-Bottom)/[1+exp(Tm-X/Slope)], where Y=fluorescence emission in arbitrary units; X=temperature; Bottom=baseline fluorescence at low temperature; Top=maximal fluorescence at top of the dataset; Slope=describes the steepness of the curve, with larger values denoting shallower curves.

The target in assay [4] is T3, TRADD-N (Homo sapiens, UniProt Q15628).
T3 construct: expression constructs encoding Flag-TRADD-N(1-179) and HA-TRADD-C(180-312); His (N); made in house
T3 sequence (Q15628 1-179): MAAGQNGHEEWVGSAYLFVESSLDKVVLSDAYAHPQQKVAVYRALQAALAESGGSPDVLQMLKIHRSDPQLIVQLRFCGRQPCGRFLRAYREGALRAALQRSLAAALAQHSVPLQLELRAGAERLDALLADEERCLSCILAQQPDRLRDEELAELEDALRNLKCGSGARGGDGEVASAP
Nature of the assay: STD-NMR binding to TRADD-N. Particulars: 1 mM compound, 13 μM TRADD-N. How it is done: The on-resonance irradiation of TRADD-N was performed at a chemical shift of −0.5 ppm, whereas the off-resonance irradiation was conducted at 37 ppm. Spectra were acquired using the following parameters: spectral window of 6.4 kHz, number of scans at 320, acquisition time of 2 s, and repetition time of 3 s. The decrease in signal intensity in STD spectrum, resulting from the transfer of saturation from the protein to the ligand, is evaluated by subtracting the on-resonance spectrum from the off-resonance spectrum. This subtraction yields a positive signal from a bound ligand. The asterisks indicate the signals of the compounds.
This saturation quickly propagates throughout the protein by spin diffusion and is transferred to the ligand, which only occurs if it is bound, leading to reduced intensities of the ligand. The STD spectra were acquired on a 400 MHz spectrometer (ICCB-19 and Apt-1) or 800 MHz spectrometer (ICCB-19i). The samples for STD NMR were prepared as 13 μM TRADD-N or TRADD-N(G121A) with 1 mM Apt-1, ICCB-19 or ICCB-19i in 0.5 mL of PBS in D2O (10%). […] The decrease in signal intensity in STD spectrum, resulting from the transfer of saturation from the protein to the ligand, is evaluated by subtracting the on-resonance spectrum from the off-resonance spectrum.

The test system of assay [5] is MEFs, BV2 cells, BMDMs. The experiment in a line: Inflammatory responses in cells stimulated with TNFα or PAMPs. Type of assay: cell-based. As to conditions: 10 μM. How it is done: The protein levels of iNOS and Cox2 were determined by immunoblotting.
TNFα production was determined by ELISA.
The cells were then treated with Apt-1 (10 μM) or Nec-1s (10 μM) for 1 h and MDP (10 μg/ml) was added to cells directly and treated for 8 h. TNFα production was determined by ELISA. Mean ±s.d. from technical triplicates (n=3), representative of 3 independent experiments.

Setting [6] is: Table 3, 0.5 ng/ml TNFα plus 0.5 μM 5Z-7-Oxozeaenol, read-out: RGC5 T/5z7 IC50/μM.

As to `CN1CCN=C1SC(C(=O)NC1CCCCCC1)c1ccccc1` (centres unmarked) [Compound 30], the IC50 in assay [1] (setting [6]) stood at 1.28 µM. Also, in assay [2], the “increase of Tm of GST-TRADD” value is 3.7 °C. Further, the “binding to GST-TRADD-C” value in assay [3] is recorded as “does not bind”. Also, the “binding with TRADD-N by STD-NMR” value in assay [4] is recorded as “could bind with TRADD-N”. Further, the “production of inflammatory target genes and inflammatory cytokines” value in assay [5] was “reduced production”.

In the case of `O=C(CSC1=NCCN1)NC1CCCCCC1` [ICCB-19], the IC50 in assay [1] (Table 2, 0.5 ng/ml TNFα plus 0.5 μM 5Z-7-Oxozeaenol, read-out: RGC5 T/5z7 IC50) was determined as 0.18 µM; in assay [1] (setting [6]), 2.01 µM. Moreover, the “increase of Tm of GST-TRADD” value in assay [2] stood at 3.2 °C. The “binding to GST-TRADD-C” value in assay [3] is given as “does not bind”. Moreover, the “binding with TRADD-N by STD-NMR” value in assay [4] is recorded as “could bind with TRADD-N”. Also, the “production of inflammatory target genes and inflammatory cytokines” value in assay [5] is “reduced production”.
